The source of these data is patent publication US8476253B2, “Amide derivative” (Daiichi Sankyo Company, Limited, priority 2009, dated 2013).

The subject of test [1] is muscarine M3 receptor. The experiment in a line: Effect of suppressing methacholine-induced airway contraction (in vivo, intratracheal administration). More on the design: species or system guinea pig. The settings on record: guinea pigs, intratracheal administration 60 minutes before 30 μg/kg i.v. methacholine; AUC of increase in airway pressure over 10 minutes. As to the method:
Using healthy guinea pigs (body weight, 350 to 550 g; Hartley male guinea pigs), the effect of suppressing airway contraction induced by methacholine, which is a muscarine receptor agonist, was examined by a modified method of Konzett-Roessler (Naunyn-Schmiedebergs Arch. Exp. Pathol. Pharmakol. 195, 71 [1940]) using airway pressure as an indicator.
(§1) A tracheal cannula and a venous cannula were attached to a guinea pig anesthetized with pentobarbital (50 mg/mL of solution, 0.40 to 0.50 mL/body, subcutaneous administration). An arterial cannula filled with heparin-containing physiological saline (100 U/mL) was further attached, and blood pressure and heart rate were monitored via an amplifier and an instantaneous heart rate meter. Subsequently, gallamine (20 mg/body, intravenous administration) was administered to terminate spontaneous breathing, and then 10 mL/kg of positive pressure breathing (Ugo-Basile Biological Research Apparatus, Cat. No. 7025) was rapidly performed at 60 times/min. The airway pressure during artificial breathing was detected with a pressure transducer (TP-200T or TP-400T; Nihon Kohden Corporation) attached to a side branch of the tracheal cannula, amplified (AP-601G; Nihon Kohden Corporation), and recorded in a recorder. After the airway pressure, blood pressure, and heart rate were stabilized, 30 μg/kg of methacholine was intravenously administered from the venous cannula to induce airway contraction, and the airway pressure was measured for the following 10 minutes.
A test substance was dissolved in 5% glucose solution, and a 0.5 mL/kg solution was administered intratracheally with an intratracheal administration apparatus (model 1A-1B; Penn-Century, Inc.) 60 minutes before stimulation with methacholine.
The AUC of increase in the airway pressure over 10 minutes after administration of methacholine was measured as the intensity of methacholine-induced airway contraction and calculated as an ID50 value from the inhibition rate based on the value of the control group (a 5% glucose solution intratracheal administration group).

The target in test [2] is T1, substance P receptor (Cavia porcellus, UniProt P30547).
T1 construct: A preparation of a crude lung membrane sample was prepared; from tissue; host or cells: guinea-pig lung (crude membrane sample)
As to the kind of experiment: Test for binding to guinea-pig substance P receptor (crude lung membrane sample). To be noted: crude guinea-pig lung membrane sample, [3H]substance P; Ki from IC50 and Kd; read-out: Ki. Here is the method:
A preparation of a crude lung membrane sample was prepared, and a test for binding of a test substance to the sample was performed according to the method described in EP0336230A2.
The binding effect of the test substance to a substance P receptor was calculated as an affinity (Ki) of the test substance for the substance P receptor from a 50% binding concentration (IC50) and an affinity (Kd) of [^3H]substance P for the substance P receptor.

Test [3] concerns the target T2, human M3 receptor (Homo sapiens, UniProt P20309).
T2 construct: expressed in transfected cells; host or cells: CHO cells
The experiment in a line: Test for binding to human M3 receptor. Here is the method:
A solution of cryopreserved CHO cells expressing human M3 receptor was diluted with a buffer (50 mM tris-hydrochloride containing 0.5 mM of EDTA, pH 7.4) to obtain 5.0×10^5 of cells/mL and used as a crude membrane sample.
[N-methyl-^3H]-(−)-Scopolamine methyl chloride (GE Healthcare Japan Corporation) was diluted with 50 mM of tris-hydrochloride containing 0.5 mM of EDTA (pH 7.4), a test substance and 250 μL of the crude membrane sample solution were added to 250 μL of the mixture, and the mixture was incubated at room temperature for 60 minutes. […] The glass fiber filter paper was pretreated with a 0.1% polyethylenimine solution for 4 hours or longer to minimize non-specific binding. The filter collecting membrane components was transferred to a small-size plastic vial containing 3 mL of Pico-Fluor, and the radioactivity was measured with a liquid scintillation counter (Tri-Carb 2900TR or 2300TR; Perkin Elmer).
The effect of binding to the M3 receptor was calculated as the affinity (Ki) of the test substance for the M3 receptor from a 50% binding dose (IC50) and the affinity (Kd) of [N-methyl-^3H]-(−)-Scopolamine methyl chloride for the M3 receptor.

In test [4] the target is T3, human NK2 receptor (Homo sapiens, UniProt P21452).
T3 construct: expressed in transfected cells; host or cells: COS cells
T3 sequence (P21452 1-398): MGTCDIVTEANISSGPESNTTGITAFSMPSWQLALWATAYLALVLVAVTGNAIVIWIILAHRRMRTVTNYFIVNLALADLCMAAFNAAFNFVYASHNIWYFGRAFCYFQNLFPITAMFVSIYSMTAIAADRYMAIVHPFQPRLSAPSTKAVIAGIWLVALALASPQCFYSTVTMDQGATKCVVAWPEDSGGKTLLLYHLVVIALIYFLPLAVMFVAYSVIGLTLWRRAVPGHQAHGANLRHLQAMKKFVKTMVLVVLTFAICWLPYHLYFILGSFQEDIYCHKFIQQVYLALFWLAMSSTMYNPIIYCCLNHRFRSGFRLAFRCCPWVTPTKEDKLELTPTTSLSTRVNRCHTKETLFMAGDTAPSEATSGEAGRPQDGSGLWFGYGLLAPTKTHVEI
As to the kind of experiment: Test for binding to human NK2 receptor. Here is the method:
A solution of cryopreserved COS cells expressing human NK2 receptor was diluted with a buffer (50 mM tris-hydrochloride containing 0.04% of bovine serum albumin [BSA], pH 7.4) to obtain a concentration of 5.0×10^5 cells/mL and used as a crude membrane sample.
[^3H]SR 48968 (GE Healthcare Japan Corporation) was diluted with a mixture of 50 mM of tris-hydrochloride (pH 7.4), 6 mM of manganese chloride tetrahydrate, 800 μg/mL of BSA, 8 μg/mL of chymostatin, 8 μg/mL of leupeptin, 80 μg/mL of bacitracin, and 20 μg/mL of phosphoramidon. […] After the reaction, the membrane components were collected on a GF/B glass fiber filter paper (Whatman; Biomedical Research and Development Laboratories, Inc.) with an automated filtration system (Brandel; Biomedical Research and Development Laboratories, Inc.). The glass fiber filter paper was pretreated with a 0.1% polyethylenimine solution for 4 hours or longer to minimize non-specific binding. The filter collecting the membrane components was transferred to a small-size plastic vial containing 3 mL of Pico-Fluor, and the radioactivity was measured with a liquid scintillation counter (Tri-Carb 2900TR or 2300TR; Perkin Elmer).
The effect of binding to the NK2 receptor was calculated as the affinity (Ki) of the test substance for the NK2 receptor from a 50% binding dose (IC50) and the affinity (Kd) of [^3H]SR 48968 for the NK2 receptor.

The target of test [5] is T4, neurokinin NK1 receptor (Cavia porcellus, UniProt P30547).
T4 construct: Using healthy guinea pigs (body weight, 350 to 550 g; Hartley male guinea pigs); from tissue; host or cells: live anaesthetised Hartley male guinea pigs (airway, in vivo)
As to the kind of experiment: Effect of suppressing substance P-induced airway contraction (in vivo, intratracheal administration). The settings on record: guinea pig; guinea pigs, intratracheal administration 60 minutes before 20 μg/kg i.v. SP; AUC of increase in airway pressure over 10 minutes; read-out: ID50 (the source's name). More on the design: species or system guinea pig. Here is the method: Using healthy guinea pigs (body weight, 350 to 550 g; Hartley male guinea pigs), the effect of suppressing airway contraction induced by substance P (SP), which is an NK1 receptor agonist, was examined by a modified method of Konzett-Roessler (Naunyn-Schmiedebergs Arch. Exp. Pathol. Pharmakol. 195, 71 [1940]) using airway pressure as an indicator.
as §1, with “mg/mL” for “mg/mL of”, “20” for “30”, “SP” for “methacholine”
The test substance was dissolved in a 5% glucose solution, a 0.5 mL/kg solution was intratracheally administered with an intratracheal administration apparatus (model 1A-1B; Penn-Century, Inc.) 60 minutes before stimulation with SP.
The AUC of increase in the airway pressure over 10 minutes after administration of SP was determined as the intensity of SP-induced airway contraction and calculated as an ID50 value from the inhibition rate based on the value of the control group (5% glucose solution intratracheal administration group).

Counter-ions that a name gives are not always drawn. Like-named read-outs stand apart in the source and are kept apart here.

T2 sequence (P20309 whole entry): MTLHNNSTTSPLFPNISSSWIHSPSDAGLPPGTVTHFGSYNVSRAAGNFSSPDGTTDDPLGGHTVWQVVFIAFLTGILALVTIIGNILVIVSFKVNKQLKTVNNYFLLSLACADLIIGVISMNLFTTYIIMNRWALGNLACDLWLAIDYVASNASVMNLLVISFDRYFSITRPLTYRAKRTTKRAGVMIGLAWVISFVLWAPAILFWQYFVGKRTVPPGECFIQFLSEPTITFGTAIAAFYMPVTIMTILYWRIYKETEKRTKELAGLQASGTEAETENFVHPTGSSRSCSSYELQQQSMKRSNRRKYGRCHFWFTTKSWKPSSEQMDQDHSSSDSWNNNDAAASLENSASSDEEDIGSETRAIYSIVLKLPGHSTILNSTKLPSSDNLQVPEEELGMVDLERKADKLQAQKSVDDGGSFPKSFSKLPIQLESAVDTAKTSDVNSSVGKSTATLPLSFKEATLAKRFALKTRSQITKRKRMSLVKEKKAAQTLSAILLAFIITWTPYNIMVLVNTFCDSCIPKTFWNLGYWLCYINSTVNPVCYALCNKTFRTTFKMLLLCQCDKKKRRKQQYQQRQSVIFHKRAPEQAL
T1 sequence (P30547 whole entry): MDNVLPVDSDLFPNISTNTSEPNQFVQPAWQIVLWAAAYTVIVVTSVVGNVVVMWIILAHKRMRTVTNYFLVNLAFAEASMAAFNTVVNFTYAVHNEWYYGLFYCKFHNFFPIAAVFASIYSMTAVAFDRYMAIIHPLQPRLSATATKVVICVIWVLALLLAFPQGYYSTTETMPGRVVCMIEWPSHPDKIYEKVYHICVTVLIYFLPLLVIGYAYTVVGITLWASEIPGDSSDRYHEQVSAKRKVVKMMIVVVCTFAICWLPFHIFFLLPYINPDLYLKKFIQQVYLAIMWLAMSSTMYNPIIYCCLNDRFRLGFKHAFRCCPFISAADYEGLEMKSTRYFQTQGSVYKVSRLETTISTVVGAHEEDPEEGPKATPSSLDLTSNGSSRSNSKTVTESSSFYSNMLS
T4 sequence (P30547 whole entry): as above

`CN(CCN1CCC(OC(=O)Nc2ccccc2-c2ccccc2)CC1)C(=O)CCCCCNc1ccc(C(=O)N(C)CCCN(C)C(=O)CO[C@H]2Cc3ccccc3C23CCN(CC[C@@]2(c4ccc(F)cc4)CN(C(=O)c4cc(C(F)(F)F)cc(C(F)(F)F)c4)CO2)CC3)c(Cl)c1` [Example 85, 1-(2-{[6-({4-[{3-[({[(2S)-1′-{2-[(5R)-3-[3,5-Bis(trifluoromethyl)benzoyl]-5-(4-fluorophenyl)-1,3-oxazolidin-5-yl]ethyl}-2,3-dihydrospiro[indene-1,4′-piperidin]-2-yl]oxy}acetyl)(methyl)amino]propyl}(methyl)carbamoyl]-3-chlorophenyl}amino)hexanoyl](methyl)amino}ethyl)piperidin-4-yl biphenyl-2-ylcarbamate trihydrochloride] returned an ID50 in test [1] of 0.0327 mg/kg. The Ki in test [2] is 2.2 nM; in test [3] it was 1.9 nM; in test [4] it was 1 nM. Further, the ED50 in test [5] turned out to be 0.0373 mg/kg.

`CN(CCN1CCC(OC(=O)Nc2ccccc2-c2ccccc2)CC1)C(=O)CCCCCNc1ccc(C(=O)N(C)CCCN(C)C(=O)CO[C@H]2Cc3ccccc3C23CCN(CC[C@@]2(c4ccc(F)cc4)CN(C(=O)c4cc(C(F)(F)F)cc(C(F)(F)F)c4)CO2)CC3)s1` [Example 4, 1-(2-{[6-({5-[{3-[({[(2S)-1′-{2-[(5R)-3-[3,5-Bis(trifluoromethyl)benzoyl]-5-(4-fluorophenyl)-1,3-oxazolidin-5-yl]ethyl}-2,3-dihydrospiro[indene-1,4′-piperidin]-2-yl]oxy}acetyl)(methyl)amino]propyl}(methyl)carbamoyl]-2-thienyl}amino)hexanoyl](methyl)amino}ethyl)piperidin-4-yl biphenyl-2-ylcarbamate] yielded an ID50 in test [1] of 0.0252 mg/kg. Besides, the Ki turned out to be 1.8 nM in test [2]; 2.1 nM in test [3] (CHO cells expressing human M3 receptor, [N-methyl-3H]-(-)-Scopolamine methyl chloride 0.5 nM, Ki from IC50 and Kd, read-out: Ki); 0.62 nM in test [4] (COS cells expressing human NK2 receptor, [3H]SR 48968 1 nM, Ki from IC50 and Kd, read-out: Ki).
